The source of these data is ChEMBL document CHEMBL4414672, “Synthesis of certain benzothieno[3,2-d]pyrimidine derivatives as a selective SIRT2 inhibitors” (Eur J Med Chem, 2020).

Converted amounts (≈) assume the structure as drawn.

In general, IC50 refers to the concentration needed to halve the response being measured.

Test [1] deals with MCF7. Description: Cytotoxicity against human MCF7 cells assessed as reduction in cell viability after 24 hrs by MTT assay. Format: functional, cell-based. The settings on record: MCF7, 24 h. A general note: Tetrazolium assays rely on reduction of a dye to a coloured formazan, in cell work by metabolically active cells.
The subject of test [2] is UO-31. Description: Cytotoxicity against human UO31 cells assessed as reduction in cell viability after 24 hrs by MTT assay. It counts as functional, cell-based. The settings on record: UO-31, 24 h.
A further test has as its system OVCAR-4. Description: Growth inhibition of human OVCAR4 cells at 10^-5 M incubated for 48 hrs by sulforhodamine B assay. It counts as functional. Particulars: OVCAR-4, 48 h, read-out: GI.
A further test concerns SN12C. Description: Growth inhibition of human SN12C cells at 10^-5 M incubated for 48 hrs by sulforhodamine B assay. Format: functional. Particulars: read-out: GI.
A further test deals with HT-29. Description: Growth inhibition of human HT-29 cells at 10^-5 M incubated for 48 hrs by sulforhodamine B assay. Format: functional. The settings on record: HT-29, 48 h, read-out: GI. On the technique in general: Sulforhodamine B stains cellular protein and so reports cell mass.
Another test concerns MOLT-4. Description: Growth inhibition of human MOLT4 cells at 10^-5 M incubated for 48 hrs by sulforhodamine B assay. Format: functional. Particulars: MOLT-4, 48 h, read-out: GI.
The next test deals with HCC 2998. Description: Growth inhibition of human HCC2998 cells at 10^-5 M incubated for 48 hrs by sulforhodamine B assay. Particulars: HCC 2998, 48 h, read-out: GI. It counts as functional.
For the next test, the system named is MDA-MB-468. Description: Growth inhibition of human MDA-MB-468 cells at 10^-5 M incubated for 48 hrs by sulforhodamine B assay. Format: functional. Particulars: MDA-MB-468, 48 h, read-out: GI.
A further test has as its system HOP-62. Description: Growth inhibition of human HOP62 cells at 10^-5 M incubated for 48 hrs by sulforhodamine B assay. Format: functional. Particulars: HOP-62, 48 h, read-out: GI.
In a further test the test system is KM12. Description: Growth inhibition of human KM12 cells at 10^-5 M incubated for 48 hrs by sulforhodamine B assay. It counts as functional. The settings on record: KM12, 48 h, read-out: GI.
In a further test the test system is SW-620. Description: Growth inhibition of human SW620 cells at 10^-5 M incubated for 48 hrs by sulforhodamine B assay. It counts as functional. The settings on record: SW-620, 48 h, read-out: GI.
A further test relates to A549. Description: Growth inhibition of human A549/ATCC cells at 10^-5 M incubated for 48 hrs by sulforhodamine B assay. Format: functional. Particulars: A549, 48 h, read-out: GI.
The test system of a further test is HL-60(TB). Description: Growth inhibition of human HL-60(TB) cells at 10^-5 M incubated for 48 hrs by sulforhodamine B assay. It counts as functional. Particulars: HL-60, 48 h, read-out: GI.
Another test relates to CAKI-1. Description: Growth inhibition of human Caki1 cells at 10^-5 M incubated for 48 hrs by sulforhodamine B assay. It counts as functional. Particulars: CAKI-1, 48 h, read-out: GI.
The next test relates to K562. Description: Growth inhibition of human K562 cells at 10^-5 M incubated for 48 hrs by sulforhodamine B assay. It counts as functional. Particulars: K562, 48 h, read-out: GI.
A further test has as its system RXF 393. Description: Growth inhibition of human RXF393 cells at 10^-5 M incubated for 48 hrs by sulforhodamine B assay. The settings on record: RXF 393, 48 h, read-out: GI. Format: functional.
In a further test the test system is NCI-H460. Description: Growth inhibition of human NCI-H460 cells at 10^-5 M incubated for 48 hrs by sulforhodamine B assay. It counts as functional. The settings on record: NCI-H460, 48 h, read-out: GI.
Another test concerns 786-0. Description: Growth inhibition of human 786-0 cells at 10^-5 M incubated for 48 hrs by sulforhodamine B assay. Format: functional. The settings on record: 786-0, 48 h, read-out: GI.
The next test concerns OVCAR-8. Description: Growth inhibition of human OVCAR8 cells at 10^-5 M incubated for 48 hrs by sulforhodamine B assay. It counts as functional. Particulars: OVCAR-8, 48 h, read-out: GI.
In test [3] the test system is MCF7. Description: Growth inhibition of human MCF7 cells at 10^-5 M incubated for 48 hrs by sulforhodamine B assay. It counts as functional. Particulars: MCF7, 48 h, read-out: GI.
In a further test the test system is HOP-92. Description: Growth inhibition of human HOP92 cells at 10^-5 M incubated for 48 hrs by sulforhodamine B assay. The settings on record: HOP-92, 48 h, read-out: GI. It counts as functional.
The test system of another test is Hs-578T. Description: Growth inhibition of human Hs 578T cells at 10^-5 M incubated for 48 hrs by sulforhodamine B assay. It counts as functional. Particulars: read-out: GI.
A further test concerns TK-10. Description: Growth inhibition of human TK10 cells at 10^-5 M incubated for 48 hrs by sulforhodamine B assay. It counts as functional. Particulars: TK-10, 48 h, read-out: GI.
The test system of another test is T47D. Description: Growth inhibition of human T47D cells at 10^-5 M incubated for 48 hrs by sulforhodamine B assay. Format: functional. Particulars: read-out: GI.
A further test deals with OVCAR-5. Description: Growth inhibition of human OVCAR5 cells at 10^-5 M incubated for 48 hrs by sulforhodamine B assay. Format: functional. The settings on record: OVCAR-5, 48 h, read-out: GI.
The next test has as its system ACHN. Description: Growth inhibition of human ACHN cells at 10^-5 M incubated for 48 hrs by sulforhodamine B assay. Particulars: read-out: GI. It counts as functional.
In a further test the test system is NCI-H226. Description: Growth inhibition of human NCI-H226 cells at 10^-5 M incubated for 48 hrs by sulforhodamine B assay. It counts as functional. The settings on record: NCI-H226, 48 h, read-out: GI.
The subject of the next test is NCI/ADR-RES. Description: Growth inhibition of human NCI/ADR-RES cells at 10^-5 M incubated for 48 hrs by sulforhodamine B assay. It counts as functional. The settings on record: read-out: GI.
The subject of the next test is IGROV-1. Description: Growth inhibition of human IGROV1 cells at 10^-5 M incubated for 48 hrs by sulforhodamine B assay. Format: functional. The settings on record: IGROV-1, 48 h, read-out: GI.
The test system of the next test is PC-3. Description: Growth inhibition of human PC3 cells at 10^-5 M incubated for 48 hrs by sulforhodamine B assay. Format: functional. The settings on record: PC-3, 48 h, read-out: GI.
The test system of another test is NCI-H23. Description: Growth inhibition of human NCI-H23 cells at 10^-5 M incubated for 48 hrs by sulforhodamine B assay. It counts as functional. Particulars: NCI-H23, 48 h, read-out: GI.
In the next test the test system is SR. Description: Growth inhibition of human SR cells at 10^-5 M incubated for 48 hrs by sulforhodamine B assay. Format: functional. The settings on record: read-out: GI.
In the next test the test system is OVCAR-3. Description: Growth inhibition of human OVCAR3 cells at 10^-5 M incubated for 48 hrs by sulforhodamine B assay. Format: functional. The settings on record: OVCAR-3, 48 h, read-out: GI.
The test system of another test is SK-OV-3. Description: Growth inhibition of human SKOV3 cells at 10^-5 M incubated for 48 hrs by sulforhodamine B assay. Format: functional. Particulars: SK-OV-3, 48 h, read-out: GI.
For another test, the system named is HCT-15. Description: Growth inhibition of human HCT15 cells at 10^-5 M incubated for 48 hrs by sulforhodamine B assay. Format: functional. Particulars: HCT-15, 48 h, read-out: GI.
The subject of another test is COLO 205. Description: Growth inhibition of human COLO205 cells at 10^-5 M incubated for 48 hrs by sulforhodamine B assay. Format: functional. The settings on record: COLO 205, 48 h, read-out: GI.
For the next test, the system named is CCRF-CEM. Description: Growth inhibition of human CCRF-CEM cells at 10^-5 M incubated for 48 hrs by sulforhodamine B assay. Particulars: read-out: GI. It counts as functional.
Another test deals with EKVX. Description: Growth inhibition of human EKVX cells at 10^-5 M incubated for 48 hrs by sulforhodamine B assay. It counts as functional. Particulars: read-out: GI.
In test [4] the test system is UO-31. Description: Growth inhibition of human UO31 cells at 10^-5 M incubated for 48 hrs by sulforhodamine B assay. Particulars: UO-31, 48 h, read-out: GI. It counts as functional.
The test system of a further test is MDA-MB-231. Description: Growth inhibition of human MDA-MB-231 cells at 10^-5 M incubated for 48 hrs by sulforhodamine B assay. Format: functional. Particulars: MDA-MB-231, 48 h, read-out: GI.
The next test has as its system NCI-H522. Description: Growth inhibition of human NCI-H522 cells at 10^-5 M incubated for 48 hrs by sulforhodamine B assay. Format: functional. Particulars: NCI-H522, 48 h, read-out: GI.
Another test has as its system DU-145. Description: Growth inhibition of human DU145 cells at 10^-5 M incubated for 48 hrs by sulforhodamine B assay. It counts as functional. The settings on record: DU-145, 48 h, read-out: GI.
Another test concerns A498. Description: Growth inhibition of human A498 cells at 10^-5 M incubated for 48 hrs by sulforhodamine B assay. It counts as functional. Particulars: A498, 48 h, read-out: GI.
Another test has as its system NCI-H322M. Description: Growth inhibition of human NCI-H322M cells at 10^-5 M incubated for 48 hrs by sulforhodamine B assay. It counts as functional. The settings on record: read-out: GI.
The test system of the next test is BT-549. Description: Growth inhibition of human BT549 cells at 10^-5 M incubated for 48 hrs by sulforhodamine B assay. Format: functional. The settings on record: BT-549, 48 h, read-out: GI.
The next test has as its system HCT-116. Description: Growth inhibition of human HCT116 cells at 10^-5 M incubated for 48 hrs by sulforhodamine B assay. The settings on record: HCT-116, 48 h, read-out: GI. It counts as functional.

As for `O=c1[nH]c(=S)[nH]c(-c2ccccc2)c1Cc1c(O)ccc2ccccc12` [CAMBINOL], the IC50 in the test on MCF7 [1] worked out at 33.9 µg/mL (≈ 94.2 µM); with UO-31 [2] it was 98.6 µg/mL (≈ 274 µM).
Take `O=C1CSC2=Nc3c(sc4ccc(Cl)cc34)C(c3cccc([N+](=O)[O-])c3)N12` (stereo unspecified): the inhibition of growth at 10 µM with OVCAR-4 is 2.1%; with SN12C, 2.31%; in the test on HT-29 it was -8.35%; in the test with MOLT-4, 8.28%; in the test on HCC 2998, -24.4%; with MDA-MB-468 it was 4.8%. Further, the inhibition of growth at 10 µM in the test with HOP-62 was 11%; with KM12, -3.54%; in the test on SW-620, -3.15%; in the test on A549 it was -1.88%; in the test with HL-60(TB), 5.48%; in the test with CAKI-1 it was 20%. Moreover, the inhibition of growth at 10 µM in the test on K562 was 6.39%; with RXF 393, -10.1%; with NCI-H460 it was -3.7%; in the test with 786-0 it was -7.37%; in the test on OVCAR-8, 0.58%; in the test with MCF7 [3], 17.9%. Also, the inhibition of growth at 10 µM is -8.65% in the test with HOP-92; -2.09% in the test with Hs-578T; -14.8% in the test with TK-10; 8.22% with T47D; -6.83% in the test with OVCAR-5; 3.93% in the test on ACHN. Moreover, the inhibition of growth at 10 µM worked out at 13.7% with NCI-H226; 12.2% in the test on NCI/ADR-RES; 17.3% with IGROV-1; 1.11% in the test on PC-3; 10.5% in the test with NCI-H23; 17.6% with SR. Also, the inhibition of growth at 10 µM in the test on OVCAR-3 was 0.32%; with SK-OV-3, 7.65%; with HCT-15, -1.95%; in the test on COLO 205, -4.05%; with CCRF-CEM it was -12%; in the test with EKVX it was 21.2%. Also, the inhibition of growth at 10 µM is 38.3% in the test on UO-31 [4]; 10.8% with MDA-MB-231; 9.11% in the test with NCI-H522; -14.2% in the test on DU-145; -13.1% in the test with A498; 5.33% in the test on NCI-H322M. The inhibition of growth at 10 µM was -21.8% with BT-549 and -0.32% in the test with HCT-116.
